Test results taken from PubChem BioAssay (NCI).
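Test compounds were applied to cells in 96-well plates for 48 hours at 5 doses. TGI is the concentration that stops growth completely.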

What was measured:
Test in all cases: DTP human tumour cell line panel, 48 h
[1] = tested on: SK-OV-3 ovarian
[2] = tested on: CCRF-CEM leukemia
[3] = tested on: SNB-78 CNS
[4] = tested on: XF 498 CNS
[5] = tested on: SF-268 CNS
[6] = tested on: SF-539 CNS
[7] = tested on: K-562 leukemia
[8] = tested on: SK-MEL-5 melanoma
[9] = tested on: EKVX NSCLC
[10] = tested on: NCI-H226 lung
[11] = tested on: HOP-18 NSCLC
[12] = tested on: IGROV1 ovarian
[13] = tested on: SNB-75 CNS
[14] = tested on: KM12 colon
[15] = tested on: TK-10 renal
[16] = tested on: NCI-H23 lung
[17] = tested on: SF-295 CNS
[18] = tested on: M19-MEL melanoma
[19] = tested on: A549 NSCLC
[20] = tested on: MOLT-4 leukemia
[21] = tested on: COLO 205 colon
[22] = tested on: KM20L2 colon
[23] = tested on: HL-60(TB) leukemia
[24] = tested on: RXF 393 renal
[25] = tested on: SK-MEL-2 melanoma
[26] = tested on: 786-0 renal
[27] = tested on: M14 melanoma
[28] = tested on: UACC-257 melanoma
[29] = tested on: U251 CNS
[30] = tested on: HOP-62 NSCLC
[31] = tested on: NCI-H460 lung
[32] = tested on: LXFL 529 NSCLC
[33] = tested on: OVCAR-5 ovarian
[34] = tested on: SN12C renal
[35] = tested on: SK-MEL-28 melanoma
[36] = tested on: DLD-1 colon
[37] = tested on: UO-31 renal
[38] = tested on: MALME-3M melanoma
[39] = tested on: RPMI-8226 leukemia
[40] = tested on: UACC-62 melanoma
[41] = tested on: SNB-19 CNS
[42] = tested on: CAKI-1 renal
[43] = tested on: OVCAR-8 ovarian
[44] = tested on: NCI-H522 lung
[45] = tested on: DMS 114 small cell lung
[46] = tested on: ACHN renal
[47] = tested on: LOX IMVI melanoma
[48] = tested on: OVCAR-4 ovarian
[49] = tested on: HCC-2998 colon
[50] = tested on: OVCAR-3 ovarian
[51] = tested on: HCT-116 colon
[52] = tested on: SW-620 colon
[53] = tested on: HOP-92 NSCLC
[54] = tested on: A498 renal
[55] = tested on: RXF-631 renal
[56] = tested on: HCT-15 colon
[57] = tested on: HT29 colon
[58] = tested on: DMS 273 small cell lung
[59] = tested on: SR leukemia

Cc1ccc(S(=O)(=O)NC(=O)Nc2nc(Cl)cc(Cl)n2)cc1
TGI [1]: > 100 µM
TGI [2]: > 100 µM
TGI [3]: > 100 µM
TGI [4]: > 100 µM
TGI [5]: > 100 µM
TGI [6]: > 100 µM
TGI [7]: > 100 µM
TGI [8]: > 100 µM
TGI [9]: > 100 µM
TGI [10]: > 100 µM
TGI [11]: > 100 µM
TGI [12]: > 100 µM
TGI [13]: > 100 µM
TGI [14]: > 100 µM
TGI [15]: > 100 µM
TGI [16]: > 100 µM
TGI [17]: > 100 µM
TGI [18]: > 100 µM
TGI [19]: > 100 µM
TGI [20]: > 100 µM
TGI [21]: > 100 µM
TGI [22]: > 100 µM
TGI [23]: > 100 µM
TGI [24]: > 100 µM
TGI [25]: > 100 µM
TGI [26]: > 100 µM
TGI [27]: > 100 µM
TGI [28]: > 100 µM
TGI [29]: > 100 µM
TGI [30]: > 100 µM
TGI [31]: > 100 µM
TGI [32]: > 100 µM
TGI [33]: > 100 µM
TGI [34]: > 100 µM
TGI [35]: > 100 µM
TGI [36]: > 100 µM
TGI [37]: > 100 µM
TGI [38]: > 100 µM
TGI [39]: > 100 µM
TGI [40]: > 100 µM
TGI [41]: > 100 µM
TGI [42]: > 100 µM
TGI [43]: > 100 µM
TGI [44]: 23.9 µM
TGI [45]: > 100 µM
TGI [46]: > 100 µM
TGI [47]: > 100 µM
TGI [48]: > 100 µM
TGI [49]: > 100 µM
TGI [50]: > 100 µM
TGI [51]: > 100 µM
TGI [52]: > 100 µM
TGI [53]: > 100 µM
TGI [54]: > 100 µM
TGI [55]: > 100 µM

O=C(Nc1ccc(Cl)cc1Cl)/C(Cl)=C1/Sc2ccccc2NC1=O
TGI [1]: 80.4 µM
TGI [2]: 83.4 µM
TGI [3]: > 100 µM
TGI [4]: 40.5 µM
TGI [5]: > 100 µM
TGI [6]: > 100 µM
TGI [7]: > 100 µM
TGI [8]: 45.8 µM
TGI [9]: > 100 µM
TGI [10]: 79.2 µM
TGI [12]: > 100 µM
TGI [13]: 85.9 µM
TGI [15]: > 100 µM
TGI [16]: 55 µM
TGI [18]: > 100 µM
TGI [19]: > 100 µM
TGI [20]: 87 µM
TGI [21]: > 100 µM
TGI [22]: > 100 µM
TGI [23]: 53.8 µM
TGI [24]: 75.8 µM
TGI [25]: 48.3 µM
TGI [26]: > 100 µM
TGI [27]: > 100 µM
TGI [29]: > 100 µM
TGI [30]: > 100 µM
TGI [31]: > 100 µM
TGI [32]: > 100 µM
TGI [33]: > 100 µM
TGI [34]: > 100 µM
TGI [35]: 75.7 µM
TGI [36]: > 100 µM
TGI [37]: 77.2 µM
TGI [38]: 77.9 µM
TGI [39]: 65.9 µM
TGI [40]: > 100 µM
TGI [41]: > 100 µM
TGI [42]: > 100 µM
TGI [43]: > 100 µM
TGI [44]: 49 µM
TGI [45]: 80 µM
TGI [46]: 78.9 µM
TGI [56]: > 100 µM
TGI [47]: > 100 µM
TGI [48]: > 100 µM
TGI [49]: > 100 µM
TGI [51]: 66.4 µM
TGI [52]: > 100 µM
TGI [53]: 51.6 µM
TGI [54]: > 100 µM

C/C(CN1C(=O)c2ccccc2C1=O)=N\NS(C)(=O)=O
TGI [1]: > 100 µM
TGI [2]: > 100 µM
TGI [3]: > 100 µM
TGI [4]: > 100 µM
TGI [5]: > 100 µM
TGI [6]: > 100 µM
TGI [7]: > 100 µM
TGI [8]: > 100 µM
TGI [9]: > 100 µM
TGI [10]: > 100 µM
TGI [11]: > 100 µM
TGI [12]: > 100 µM
TGI [13]: > 100 µM
TGI [14]: > 100 µM
TGI [15]: > 100 µM
TGI [16]: > 100 µM
TGI [17]: > 100 µM
TGI [18]: > 100 µM
TGI [19]: > 100 µM
TGI [20]: > 100 µM
TGI [21]: > 100 µM
TGI [22]: > 100 µM
TGI [23]: > 100 µM
TGI [24]: > 100 µM
TGI [25]: > 100 µM
TGI [26]: > 100 µM
TGI [27]: > 100 µM
TGI [28]: > 100 µM
TGI [29]: > 100 µM
TGI [30]: > 100 µM
TGI [31]: > 100 µM
TGI [57]: > 100 µM
TGI [32]: > 100 µM
TGI [33]: > 100 µM
TGI [34]: > 100 µM
TGI [35]: > 100 µM
TGI [36]: > 100 µM
TGI [37]: > 100 µM
TGI [38]: > 100 µM
TGI [39]: > 100 µM
TGI [40]: > 100 µM
TGI [41]: > 100 µM
TGI [58]: > 100 µM
TGI [42]: > 100 µM
TGI [43]: > 100 µM
TGI [44]: > 100 µM
TGI [45]: > 100 µM
TGI [46]: > 100 µM
TGI [56]: > 100 µM
TGI [48]: > 100 µM
TGI [49]: > 100 µM
TGI [50]: > 100 µM
TGI [51]: > 100 µM
TGI [52]: > 100 µM
TGI [54]: > 100 µM

FC(F)(F)c1ccccc1C=NC12CC3CC(CC(C3)C1)C2
TGI [1]: > 100 µM
TGI [3]: > 100 µM
TGI [4]: > 100 µM
TGI [5]: > 100 µM
TGI [6]: > 100 µM
TGI [7]: > 100 µM
TGI [8]: > 100 µM
TGI [9]: > 100 µM
TGI [10]: > 100 µM
TGI [12]: > 100 µM
TGI [13]: > 100 µM
TGI [14]: > 100 µM
TGI [59]: > 100 µM
TGI [15]: > 100 µM
TGI [16]: > 100 µM
TGI [17]: > 100 µM
TGI [18]: > 100 µM
TGI [19]: > 100 µM
TGI [20]: > 100 µM
TGI [21]: > 100 µM
TGI [22]: > 100 µM
TGI [23]: > 100 µM
TGI [24]: > 100 µM
TGI [25]: > 100 µM
TGI [26]: > 100 µM
TGI [27]: > 100 µM
TGI [28]: > 100 µM
TGI [29]: > 100 µM
TGI [30]: > 100 µM
TGI [31]: > 100 µM
TGI [57]: > 100 µM
TGI [33]: > 100 µM
TGI [34]: > 100 µM
TGI [35]: > 100 µM
TGI [37]: 12.1 µM
TGI [38]: > 100 µM
TGI [39]: > 100 µM
TGI [41]: > 100 µM
TGI [58]: > 100 µM
TGI [42]: > 100 µM
TGI [43]: > 100 µM
TGI [45]: > 100 µM
TGI [46]: > 100 µM
TGI [56]: > 100 µM
TGI [47]: > 100 µM
TGI [48]: > 100 µM
TGI [49]: > 100 µM
TGI [50]: > 100 µM
TGI [51]: > 100 µM
TGI [52]: > 100 µM
TGI [54]: > 100 µM
